Results from patent publication US20220040263A1, “COMPANION DIAGNOSTIC FOR COMBINATION LENALIDOMIDE AND ERYTHROPOIETIN TREATMENT” (H. Lee Moffitt Cancer Center and Research Institute, Inc., priority 2016, published 2022).
Entries after “also recorded” stand apart in the source; their conditions may differ.

How the values were obtained:
[1] = system: Jak2 and STAT5 phosphorylation in UT7 cells; assay: Jak2 and STAT5 phosphorylation in UT7 cells with JAK or Src kinase inhibitors (Western); type: cell-based
Experimental: 10×10^7 UT7 cells were serum starved then treated with SKI 606 or AG490 for 30 minutes, CC5013 for 2 hours, and stimulated with EPO (1 U/ml) for 10 minutes at 37° C. Cells were lysed and […] run on a 4-15% Gradient gel (Bio-rad). Antibodies included p-STAT5 (Upstate, 1:1000 in 5% TBS/milk), total STAT5 (Cell Signaling, 1:10000 in 5% TBS/milk), and p-Jak2 (Santa Cruz, 1:500 in 5% TBS/milk). Blots were developed with an ECL detection kit (Amersham).
To further evaluate the mechanism by which lenalidomide enhances the EPO-R signal, STAT5 activation was assessed in response to EPO+lenalidomide treatment using selective pharmacologic inhibitors of JAK (AG490) or Src ([…]) kinases [FIG. 4].

[2] = molecular target: T1, rhu-CD45 (Homo sapiens, UniProt P08575); assay: BIOMOL Green CD45 Tyrosine Phosphatase Assay; type: biochemical; details: 1 μM, recombinant CD45, substrate pp60c-Src
T1 construct: purchased Calbiochem
T1 sequence (P08575 26-1306): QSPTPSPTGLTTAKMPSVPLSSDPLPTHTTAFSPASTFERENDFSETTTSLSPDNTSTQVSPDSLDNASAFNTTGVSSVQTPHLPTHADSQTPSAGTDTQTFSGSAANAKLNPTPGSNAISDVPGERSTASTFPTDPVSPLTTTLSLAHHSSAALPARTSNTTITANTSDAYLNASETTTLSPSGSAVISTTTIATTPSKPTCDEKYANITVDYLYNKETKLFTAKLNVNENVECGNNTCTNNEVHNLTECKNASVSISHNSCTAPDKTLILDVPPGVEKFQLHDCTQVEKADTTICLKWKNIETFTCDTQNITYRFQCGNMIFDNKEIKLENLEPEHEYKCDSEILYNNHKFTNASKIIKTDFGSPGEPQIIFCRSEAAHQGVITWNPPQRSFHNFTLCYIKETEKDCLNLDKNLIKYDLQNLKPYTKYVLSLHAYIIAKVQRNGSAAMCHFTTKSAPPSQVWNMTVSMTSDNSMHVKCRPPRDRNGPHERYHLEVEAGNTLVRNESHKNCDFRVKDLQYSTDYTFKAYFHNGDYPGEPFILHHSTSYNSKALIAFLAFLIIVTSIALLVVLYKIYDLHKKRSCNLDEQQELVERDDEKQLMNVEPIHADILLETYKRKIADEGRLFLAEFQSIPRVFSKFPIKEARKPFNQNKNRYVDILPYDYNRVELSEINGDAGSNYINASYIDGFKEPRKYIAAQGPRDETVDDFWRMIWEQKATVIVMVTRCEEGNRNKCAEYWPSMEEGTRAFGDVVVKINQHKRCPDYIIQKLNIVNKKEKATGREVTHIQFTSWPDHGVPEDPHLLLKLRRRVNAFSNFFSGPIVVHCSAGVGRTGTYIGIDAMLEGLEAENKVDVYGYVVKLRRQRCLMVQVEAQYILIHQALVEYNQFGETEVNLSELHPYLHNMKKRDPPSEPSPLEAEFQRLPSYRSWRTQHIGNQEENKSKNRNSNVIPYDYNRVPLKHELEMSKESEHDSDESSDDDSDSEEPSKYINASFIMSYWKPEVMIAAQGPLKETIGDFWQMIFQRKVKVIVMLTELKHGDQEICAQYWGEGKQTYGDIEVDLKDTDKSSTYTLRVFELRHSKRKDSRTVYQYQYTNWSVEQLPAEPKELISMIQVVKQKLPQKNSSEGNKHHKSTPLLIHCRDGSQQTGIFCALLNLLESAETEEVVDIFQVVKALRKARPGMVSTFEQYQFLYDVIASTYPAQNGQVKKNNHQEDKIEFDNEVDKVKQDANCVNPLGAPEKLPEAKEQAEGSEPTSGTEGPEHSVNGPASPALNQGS
Experimental: CD45-specific PTP activity was assayed as outlined in the BIOMOL Green™ CD45 Tyrosine Phosphatase Assay Kit. Briefly, 75 U of rhu-CD45 (Calbiochem) was incubated for 1H at 37° C. with the indicated inhibitors (1 μM CC5013 and thalidomide, 100 μM Na Orthovanadate, and 50 μM RWJ-60475 (CD45-specific PTP inhibitor) in 1× assay buffer. The substrate pp60c-Src was added at 200 μM and incubated for 1H at 37° C. Samples were read on a plate reader at 620 nm. Percent PTP activity was calculated according to the equation (OD of test sample/OD of control)×100.
This notion is in agreement with findings that lenalidomide suppressed cytosolic release of Csk that is dependent upon dephosphorylation of the Cbp/PAG Csk docking site (Tyr314) by CD45. To determine if lenalidomide inhibits CD45 phosphatase, recombinant CD45 PTP inhibition by lenalidomide and thalidomide was compared to the pan-PTP inhibitor sodium orthovanadate and the CD45-selective inhibitor, RWJ-60475 using the Biomol CD45 phosphatase assay. […] [FIG. 7].

[3] = system: AML-EH5q cells; assay: Apoptosis by Annexin-V/PI flow cytometry in AML-EH5q cells; type: cell-based; details: AML-EH5q (5q-deleted) cells, 24 hours
Experimental: (§1) AML-EH5q (FIG. 8A) and U937 (FIG. 8B) cells were exposed to lenalidomide, thalidomide or vehicle at the concentrations indicated for 24 hours in IMDM and 20% FBS and apoptosis assessed by flow cytometry using Annexin-V/PI staining. Briefly, cells are incubated for 20 minutes at room temperature in 50 mM HEPES (pH 7.4) and 150 mM NaCl containing 2 mM calcium chloride with a mixture of 1 μg/mLAnnexin V-FITC (Boehringer Mannhein, Mannhein, Germany) and 2.5 μg/mL propidium iodide (PI; Sigma-Aldrich) before analysis.
(§2) The hematologic effects of lenalidomide could derive from dual effects that are karyotype-dependent, i.e., (1) the potentiation of erythropoiesis in non-del5q erythroid precursors, and (2) selective suppression of del5q clones. To confirm that lenalidomide is selectively cytotoxic to del-5q clones, an AML cell line transformed from an MDS patient with isolated 5q31 deletion was cultivated and the cell line successfully maintained in suspension culture with recombinant myeloid growth factor supplementation. This cell line [designated AML-EH5q] is an AML cell line that harbors the isolated 5q-deletion. […] To evaluate the selectivity of lenalidomide cytotoxic for del5q clones, apoptotic response to lenalidomide and thalidomide was compared in AML-EH5q and U937 (non-del5q) cells by flow cytometry. […] Viability was unaffected at all concentrations for both agents in U937 cells.

[4] = system: U937 (non-del5q) cells; assay: Apoptosis by Annexin-V/PI flow cytometry in U937 cells; type: cell-based; details: 24 hours, all concentrations
Experimental: as §1, §2

Compound: N#C/C(=C/c1ccc(O)c(O)c1)C(=O)NCc1ccccc1 [AG490]
- effect of kinase inhibitor on lenalidomide's potentiation of EPO-induced STAT5 phosphorylation [1]: suppress
- effect of kinase inhibitor on lenalidomide-augmented EPO-induced Jak2-phosphorylation ([1]; inhibitor 30 minutes, CC5013 2 hours, EPO 1 U/ml 10 minutes): abrogated

Compound: O=C1CCC(N2C(=O)c3ccccc3C2=O)C(=O)N1 (stereo not drawn) [thalidomide]
- inhibition of CD45 PTP activity [2]: minimal inhibition
- induction of programmed cell death (apoptosis) [3]: comparatively inactive
- viability / apoptosis [4]: comparatively inactive; also recorded: unaffected

Compound: COc1cc(Nc2c(C#N)cnc3cc(OCCCN4CCN(C)CC4)c(OC)cc23)c(Cl)cc1Cl [SKI-606]
- effect of kinase inhibitor on lenalidomide's potentiation of EPO-induced STAT5 phosphorylation [1]: suppress
